Reference: patent US20110319491A1, “ANHYDROUS DEPIGMENTING COMPOSITIONS COMPRISING, WITHIN THE FATTY PHASE THEREOF, A SOLUBILIZED PHENOLIC COMPOUND AND A RETINOID” (GALDERMA RESEARCH & DEVELOPMENT, priority 2009, published 2011)
Read-outs that look alike come from different tables or passages of the source. Blank lines part the entries; values can stand above or below the molecule they belong to.

Key:
[1] = Chemical stability of the formulations (HPLC assay of the active agents); format: physicochemical
Method: The chemical stability is measured by assaying the active agents by external calibration in HPLC and the results are expressed as a % of […] relative to the theoretical value.

[2] = Stability of rucinol in solvent oils and lipophilic surfactants (HPLC assay); format: physicochemical; conditions: T0 = 100%
Source text: Assay technique by HPLC against reference substance.
The initial time (T0) is considered as 100%.

[3] = Rucinol solubilities in solvents (HPLC); format: physicochemical
[4] = in all the solvents that may be used for retinoids; cited from earlier work
[5] = Stability of hydroquinone in solvent oils and lipophilic surfactants (HPLC assay, colour)
[6] = cited from earlier work
[7] = in composition of Example 3, 4° C., T + 1 M
[8] = in composition of Example 3, 4° C., T + 2 M
[9] = in composition of Example 3, 40° C., T + 1 M
[10] = in composition of Example 3, 40° C., T + 2 M
[11] = in composition of Example 3, RT, T0
[12] = in composition of Example 3, RT, T + 1 M
[13] = in composition of Example 3, RT, T + 2 M
[14] = in Caprylic capric triglycerides
[15] = in composition of Example 2, 40° C., T + 1 M
[16] = in composition of Example 2, 40° C., T + 2 M
[17] = in composition of Example 2, 40° C., T + 3 M
[18] = in composition of Example 2, RT, T + 1 M
[19] = in composition of Example 2, RT, T + 2 M
[20] = in composition of Example 2, RT, T + 3 M
[21] = in Cremophor EL, 1 month, 40° C.
[22] = in Cremophor EL, 3 months, 40° C.
[23] = in Crodamol DA, 1 month, 40° C.
[24] = in Crodamol DA, 3 months, 40° C.
[25] = in Ethanol/water (20/80), 1 month, 40° C.
[26] = in Ethanol/water (20/80), 1 month, RT
[27] = in Ethanol/water (20/80), 3 months, 40° C.
[28] = in Ethanol/water (20/80), 3 months, RT
[29] = in Propylene glycol, 1 month, 40° C.
[30] = in Propylene glycol, 1 month, RT
[31] = in Propylene glycol, 3 months, 40° C.
[32] = in Propylene glycol, 3 months, RT

Chemical stability: rucinol assay, % relative to the theoretical value [1, 7]: 99.4%
Chemical stability: rucinol assay, % relative to the theoretical value [1, 8]: 97.4%
Chemical stability: rucinol assay, % relative to the theoretical value [1, 9]: 98.8%
Chemical stability: rucinol assay, % relative to the theoretical value [1, 10]: 97.8%
Chemical stability: rucinol assay, % relative to the theoretical value [1, 11]: 98.1%
Chemical stability: rucinol assay, % relative to the theoretical value [1, 12]: 100.6%
Chemical stability: rucinol assay, % relative to the theoretical value [1, 13]: 101.6%
T + 1 month (% LC) ([2]; in Arlamol E, 40° C.): 94.4 % LC
T + 1 month (% LC) ([2]; in Arlamol E, RT): 95 % LC
T + 1 month (% LC) ([2]; in Cremophor EL, 40° C.): 96.2 % LC
T + 1 month (% LC) ([2]; in Cremophor EL, RT): 96 % LC
T + 1 month (% LC) ([2]; in Ethanol, 40° C.): 105 % LC
T + 1 month (% LC) ([2]; in Ethanol, RT): 100.4 % LC
T + 1 month (% LC) ([2]; in Labrasol, 40° C.): 100.8 % LC
T + 1 month (% LC) ([2]; in Labrasol, RT): 97.8 % LC
T + 1 month (% LC) ([2]; in Miglyol, 40° C.): 99.8 % LC
T + 1 month (% LC) ([2]; in Miglyol, RT): 91.2 % LC
Max. solubility (% w/w) ([3]; in Arlamol E): 48.2 % w/w
Max. solubility (% w/w) [3, 14]: 47.8 % w/w
Max. solubility (% w/w) ([3]; in Castor oil): 46.4 % w/w
Max. solubility (% w/w) ([3]; in Cremophor EL): 49.7 % w/w
Max. solubility (% w/w) ([3]; in Crodamol DA): 64.1 % w/w
Max. solubility (% w/w) ([3]; in Ethanol): >75.5 % w/w
Max. solubility (% w/w) ([3]; in Glycerol): 63.8 % w/w
Max. solubility (% w/w) ([3]; in Labrasol): 60.9 % w/w
Max. solubility (% w/w) ([3]; in Lauroglycol): 52.8 % w/w
Max. solubility (% w/w) ([3]; in PEG 400): 61.6 % w/w
Max. solubility (% w/w) ([3]; in Propylene glycol): >67.7 % w/w
Solubility of rucinol (in words) ([3]; in all the solvents tested): very good solubility
SMILES: CCCCc1ccc(O)cc1O [Rucinol, 4-butylresorcinol]

Chemical stability: adapalene assay, % relative to the theoretical value [1, 15]: 92.4%
Chemical stability: adapalene assay, % relative to the theoretical value [1, 16]: 96.8%
Chemical stability: adapalene assay, % relative to the theoretical value [1, 17]: 94.5%
Chemical stability: adapalene assay, % relative to the theoretical value [1, 18]: 94%
Chemical stability: adapalene assay, % relative to the theoretical value [1, 19]: 97.4%
Chemical stability: adapalene assay, % relative to the theoretical value [1, 20]: 95.3%
Chemical stability: adapalene assay, % relative to the theoretical value [1, 7]: 104%
Chemical stability: adapalene assay, % relative to the theoretical value [1, 8]: 107.0%
Chemical stability: adapalene assay, % relative to the theoretical value [1, 9]: 108%
Chemical stability: adapalene assay, % relative to the theoretical value [1, 10]: 106.0%
Chemical stability: adapalene assay, % relative to the theoretical value [1, 11]: 108.7%
Chemical stability: adapalene assay, % relative to the theoretical value [1, 12]: 106%
Chemical stability: adapalene assay, % relative to the theoretical value [1, 13]: 106.0%
SMILES: COc1ccc(-c2ccc3cc(C(=O)O)ccc3c2)cc1C12CC3CC(CC(C3)C1)C2 [Adapalene, 6-(3-(1-adamantyl)-4-methoxyphenyl)-2-naphthoic acid]
Solubility of adapalene (in words) [4]: insoluble

% (HPLC assay, T0 = 100%) ([5]; in Arlamol E, 1 month, 40° C.): 95.5%
Colour ([5]; in Arlamol E, 1 month, 40° C.): Colourless
% (HPLC assay, T0 = 100%) ([5]; in Arlamol E, 1 month, RT): 95.9%
Colour ([5]; in Arlamol E, 1 month, RT): Colourless
% (HPLC assay, T0 = 100%) ([5]; in Arlamol E, 3 months, 40° C.): 96.0%
Colour ([5]; in Arlamol E, 3 months, 40° C.): Colourless
% (HPLC assay, T0 = 100%) ([5]; in Arlamol E, 3 months, RT): 95.9%
Colour ([5]; in Arlamol E, 3 months, RT): Colourless
% (HPLC assay, T0 = 100%) [5, 21]: 87.1%
Colour [5, 21]: Brown
% (HPLC assay, T0 = 100%) ([5]; in Cremophor EL, 1 month, RT): 91.4%
Colour ([5]; in Cremophor EL, 1 month, RT): Orange
% (HPLC assay, T0 = 100%) [5, 22]: 85.1%
Colour [5, 22]: Brown++
% (HPLC assay, T0 = 100%) ([5]; in Cremophor EL, 3 months, RT): 87%
Colour ([5]; in Cremophor EL, 3 months, RT): Brown+
Macroscopic stability of hydroquinone (in words) ([5]; in Cremophor EL, browning that becomes pronounced over time and with temperature): macroscopic instability
Chemical and physical stability of hydroquinone (in words) ([5]; in Crodamol DA, Arlamol E and Labrasol): good chemical and physical stability
% (HPLC assay, T0 = 100%) [5, 23]: 95.9%
Colour [5, 23]: Colourless
% (HPLC assay, T0 = 100%) ([5]; in Crodamol DA, 1 month, RT): 96.5%
Colour ([5]; in Crodamol DA, 1 month, RT): Colourless
% (HPLC assay, T0 = 100%) [5, 24]: 97.4%
Colour [5, 24]: Colourless
% (HPLC assay, T0 = 100%) ([5]; in Crodamol DA, 3 months, RT): 97.6%
Colour ([5]; in Crodamol DA, 3 months, RT): Colourless
% (HPLC assay, T0 = 100%) [5, 25]: 91.7%
Colour [5, 25]: Dark pink
% (HPLC assay, T0 = 100%) [5, 26]: 94.4%
Colour [5, 26]: Orange
% (HPLC assay, T0 = 100%) [5, 27]: 89.4%
Colour [5, 27]: Brown
% (HPLC assay, T0 = 100%) [5, 28]: 93.9%
Colour [5, 28]: Orange
% (HPLC assay, T0 = 100%) ([5]; in Glycerol, 1 month, 40° C.): 93.5%
Colour ([5]; in Glycerol, 1 month, 40° C.): Dark yellow
% (HPLC assay, T0 = 100%) ([5]; in Glycerol, 1 month, RT): 95.0%
Colour ([5]; in Glycerol, 1 month, RT): Yellow
% (HPLC assay, T0 = 100%) ([5]; in Glycerol, 3 months, 40° C.): 93.3%
Colour ([5]; in Glycerol, 3 months, 40° C.): Orange
% (HPLC assay, T0 = 100%) ([5]; in Glycerol, 3 months, RT): 93.0%
Colour ([5]; in Glycerol, 3 months, RT): Pink
% (HPLC assay, T0 = 100%) ([5]; in Labrasol, 1 month, 40° C.): 95.2%
Colour ([5]; in Labrasol, 1 month, 40° C.): Colourless
% (HPLC assay, T0 = 100%) ([5]; in Labrasol, 1 month, RT): 95.4%
Colour ([5]; in Labrasol, 1 month, RT): Colourless
% (HPLC assay, T0 = 100%) ([5]; in Labrasol, 3 months, 40° C.): 95.1%
Colour ([5]; in Labrasol, 3 months, 40° C.): Colourless
% (HPLC assay, T0 = 100%) ([5]; in Labrasol, 3 months, RT): 94.6%
Colour ([5]; in Labrasol, 3 months, RT): Colourless
% (HPLC assay, T0 = 100%) ([5]; in Miglyol, 1 month, 40° C.): 95%
Colour ([5]; in Miglyol, 1 month, 40° C.): Colourless
% (HPLC assay, T0 = 100%) ([5]; in Miglyol, 1 month, RT): 94.2%
Colour ([5]; in Miglyol, 1 month, RT): Colourless
% (HPLC assay, T0 = 100%) ([5]; in Miglyol, 3 months, 40° C.): 95%
Colour ([5]; in Miglyol, 3 months, 40° C.): Colourless
% (HPLC assay, T0 = 100%) ([5]; in Miglyol, 3 months, RT): 93.1%
Colour ([5]; in Miglyol, 3 months, RT): Colourless
% (HPLC assay, T0 = 100%) ([5]; in PEG 400, 1 month, 40° C.): 91.4%
Colour ([5]; in PEG 400, 1 month, 40° C.): Orange
% (HPLC assay, T0 = 100%) ([5]; in PEG 400, 1 month, RT): 93.4%
Colour ([5]; in PEG 400, 1 month, RT): Pink
% (HPLC assay, T0 = 100%) ([5]; in PEG 400, 3 months, 40° C.): 91.8%
Colour ([5]; in PEG 400, 3 months, 40° C.): Brown
% (HPLC assay, T0 = 100%) ([5]; in PEG 400, 3 months, RT): 89.0%
Colour ([5]; in PEG 400, 3 months, RT): Brown
% (HPLC assay, T0 = 100%) [5, 29]: 91.8%
Colour [5, 29]: Yellow
% (HPLC assay, T0 = 100%) [5, 30]: 97.0%
Colour [5, 30]: Colourless
% (HPLC assay, T0 = 100%) [5, 31]: 88.8%
Colour [5, 31]: Dark yellow
% (HPLC assay, T0 = 100%) [5, 32]: 94.2%
Colour [5, 32]: Yellow
Colour stability of hydroquinone (in words) ([5]; in solvents of the prior art such as glycols, RT and 40° C., absence of antioxidants): colouration is observed
Chemical stability: hydroquinone assay, % relative to the theoretical value [1, 15]: 97.6%
Chemical stability: hydroquinone assay, % relative to the theoretical value [1, 16]: 100.8%
Chemical stability: hydroquinone assay, % relative to the theoretical value [1, 17]: 99.2%
Chemical stability: hydroquinone assay, % relative to the theoretical value ([1]; in composition of Example 2, 40° C., T + 6 M): 97.2%
Chemical stability: hydroquinone assay, % relative to the theoretical value [1, 18]: 98.9%
Chemical stability: hydroquinone assay, % relative to the theoretical value [1, 19]: 101.8%
Chemical stability: hydroquinone assay, % relative to the theoretical value [1, 20]: 98.8%
Chemical stability: hydroquinone assay, % relative to the theoretical value ([1]; in composition of Example 2, RT, T + 6 M): 100.6%
Max. solubility (w/w) (in Arlamol E): 11.9 w/w
Max. solubility (w/w) [14]: 1.7 w/w
Max. solubility (w/w) (in Castor oil): 6.5 w/w
Max. solubility (w/w) (in Cremophor EL): 27.9 w/w
Solubility of hydroquinone (in words) (in Cremophor EL): high solubility
Max. solubility (w/w) (in Crodamol DA): 10.7 w/w
Max. solubility (w/w) (in Ethanol/water (20/80)): 17 w/w
Max. solubility (w/w) (in Glycerol): 15.6 w/w
Max. solubility (w/w) (in Labrasol): 28.9 w/w
Max. solubility (w/w) (in Lauroglycol): 5.5 w/w
Max. solubility (w/w) (in PEG 400): 19.8 w/w
Max. solubility (w/w) (in Propylene glycol): 15.6 w/w
SMILES: Oc1ccc(O)cc1 [Hydroquinone, hydroquinone]
Incidence of irritation ([6]; 2% hydroquinone concentration): virtually nonexistent
Incidence of irritation ([6]; 10% hydroquinone concentration): relatively high
Incidence of irritation ([6]; preparations with a 5% dose of hydroquinone): reduces greatly
